Results reported in patent publication US20160287589A1, “SUBSTITUTED-IMIDAZOPYRIDAZINES” (BAYER PHARMA AKTIENGESELLSCHAFT, priority 2013, published 2016).

Key:
MKNK1 [1] = molecular target: T1, MKNK1 (Homo sapiens, UniProt Q9BUB5, T385D); assay: MKNK1 kinase assay (MKNK1 TR-FRET assay); format: biochemical; conditions: 10 μM ATP, 15 min preincubation
T1 construct: GST (N); purchased Carna Biosciences 02-145; host or cells: insect cells (baculovirus expression system)

MKNK1 [2] = molecular target: T1, MKNK1; assay: MKNK1 kinase high ATP assay (TR-FRET-based); format: biochemical; conditions: 2 mM ATP, 15 min preincubation
In short: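 TR-FRET read-out (anti-phospho-S6 Ser236 antibody, Eu/XL665) of biotin-peptide phosphorylation (0.06 μM) at high ATP (2 mM final). Enzyme was GST-MKNK1 full length, T344D, pre-bound to compound for 15 min before a 30 min reaction at 22 °C, pH 7.5. Inhibition scaled between no-inhibitor (0%) and no-enzyme (100%) wells.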

T1 sequence (Q9BUB5 1-424 isoform Q9BUB5-2 T344D): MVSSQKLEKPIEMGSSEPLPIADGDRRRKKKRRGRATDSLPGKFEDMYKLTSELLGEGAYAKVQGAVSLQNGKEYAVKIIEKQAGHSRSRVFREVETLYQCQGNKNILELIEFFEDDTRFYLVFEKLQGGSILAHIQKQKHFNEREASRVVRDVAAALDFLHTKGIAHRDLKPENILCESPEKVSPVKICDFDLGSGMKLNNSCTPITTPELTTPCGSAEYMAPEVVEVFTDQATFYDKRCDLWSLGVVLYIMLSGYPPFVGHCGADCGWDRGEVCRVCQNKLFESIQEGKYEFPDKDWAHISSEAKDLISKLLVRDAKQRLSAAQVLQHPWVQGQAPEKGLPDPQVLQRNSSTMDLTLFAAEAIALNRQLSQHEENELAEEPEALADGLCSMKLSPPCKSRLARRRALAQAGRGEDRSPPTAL

Row | IC50 (MKNK1 [1]; Table 1a) [nM] | IC50 (MKNK1 [2]; Table 2a) [nM] | IC50 (MKNK1 [1]; Table 1b) [nM] | IC50 (MKNK1 [2]; Table 2b) [nM] | Compound
1 | 2.6 | 5.2 | – | – | COCC(=O)N1CCC[C@H]1CCOc1ccc2ncc(-c3cc4ccccc4o3)n2n1 [Example I-58, 1-[(2S)-2-(2-{[3-(1-Benzofuran-2-yl)imidazo[1,2-b]-pyridazin-6-yl]oxy}ethyl)pyrrolidin-1-yl]-2-methoxyethanone]
2 | 2.8 | 5.3 | – | – | O=C(CO)N1CCC[C@H]1CCOc1ccc2ncc(-c3cc4ccccc4o3)n2n1 [Example I-59, 1-[(2S)-2-(2-{[3-(1-Benzofuran-2-yl)imidazo[1,2-b]-pyridazin-6-yl]oxy}ethyl)pyrrolidin-1-yl]-2-hydroxyethanone]
3 | 2.2 | 5.4 | – | – | CC(C)CC(=O)N1CCC[C@H]1CCOc1ccc2ncc(-c3cc4ccccc4o3)n2n1 [Example I-60, 1-[(2S)-2-(2-{[3-(1-Benzofuran-2-yl)imidazo[1,2-b]-pyridazin-6-yl]oxy}ethyl)pyrrolidin-1-yl]-3-methylbutan-1-one]
4 | 2.9 | 6.7 | – | – | O=C(c1ccc[nH]1)N1CCC[C@H]1CCOc1ccc2ncc(-c3cc4ccccc4o3)n2n1 [Example I-61, [(2S)-2-(2-{[3-(1-Benzofuran-2-yl)imidazo[1,2-b]-pyridazin-6-yl]oxy}ethyl)pyrrolidin-1-yl](1H-pyrrol-2-yl)methanone]
5 | 3.5 | 6.8 | – | – | O=C(c1ccccn1)N1CCC[C@H]1CCOc1ccc2ncc(-c3cc4ccccc4o3)n2n1 [Example I-62, [(2S)-2-(2-{[3-(1-Benzofuran-2-yl)imidazo[1,2-b]-pyridazin-6-yl]oxy}ethyl)pyrrolidin-1-yl](pyridin-2-yl)methanone]
6 | 4 | 10.1 | – | – | O=C(c1ccc(Cl)cc1)N1CCC[C@H]1CCOc1ccc2ncc(-c3cc4ccccc4o3)n2n1 [Example I-63, [(2S)-2-(2-{[3-(1-Benzofuran-2-yl)imidazo[1,2-b]-pyridazin-6-yl]oxy}ethyl)pyrrolidin-1-yl](4-chlorophenyl)methanone]
7 | 4.7 | 10.5 | – | – | O=C(NCCOc1ccc2ncc(-c3cc4ccccc4o3)n2n1)c1cccs1 [Example I-64, N-(2-{[3-(1-Benzofuran-2-yl)imidazo[1,2-b]-pyridazin-6-yl]oxy}ethyl)thiophene-2-carboxamide]
8 | 5.2 | 11.8 | – | – | O=C(NCCOc1ccc2ncc(-c3cc4ccccc4o3)n2n1)c1ccccc1Cl [Example I-65, N-(2-{[3-(1-Benzofuran-2-yl)imidazo[1,2-b]-pyridazin-6-yl]oxy}ethyl)-2-chlorobenzamide]
9 | 7.3 | 14.9 | – | – | O=C(NCCOc1ccc2ncc(-c3cc4ccccc4o3)n2n1)C1CCOCC1 [Example I-66, N-(2-{[3-(1-Benzofuran-2-yl)imidazo[1,2-b]-pyridazin-6-yl]oxy}ethyl)tetrahydro-2H-pyran-4-carboxamide]
10 | 6.6 | 20.3 | – | – | O=C(CO)NCCOc1ccc2ncc(-c3cc4ccccc4o3)n2n1 [Example I-67, N-(2-{[3-(1-Benzofuran-2-yl)imidazo[1,2-b]-pyridazin-6-yl]oxy}ethyl)-2-hydroxyacetamide]
11 | 7.8 | 20.6 | – | – | O=C(NCCOc1ccc2ncc(-c3cc4ccccc4o3)n2n1)C1CCC1 [Example I-68, N-(2-{[3-(1-Benzofuran-2-yl)imidazo[1,2-b]-pyridazin-6-yl]oxy}ethyl)cyclobutane-carboxamide]
12 | 13.7 | 36.9 | – | – | Cc1cccc(C(=O)NCCOc2ccc3ncc(-c4cc5ccccc5o4)n3n2)c1 [Example I-69, N-(2-{[3-(1-Benzofuran-2-yl)imidazo[1,2-b]-pyridazin-6-yl]oxy}ethyl)-3-methylbenzamide]
13 | 15.1 | 45.8 | – | – | O=C(NCCOc1ccc2ncc(-c3cc4ccccc4o3)n2n1)c1ccccn1 [Example I-70, N-(2-{[3-(1-Benzofuran-2-yl)imidazo[1,2-b]-pyridazin-6-yl]oxy}ethyl)pyridine-2-carboxamide]
14 | 4.6 | 14.4 | – | – | Cc1ccccc1C(=O)NCCOc1ccc2ncc(-c3cc4ccccc4o3)n2n1 [Example I-71, N-(2-{[3-(1-Benzofuran-2-yl)imidazo[1,2-b]-pyridazin-6-yl]oxy}ethyl)-2-methylbenzamide]
15 | 4.8 | 14.7 | – | – | CC(C)CC(=O)NCCOc1ccc2ncc(-c3cc4ccccc4o3)n2n1 [Example I-72, N-(2-{[3-(1-Benzofuran-2-yl)imidazo[1,2-b]-pyridazin-6-yl]oxy}ethyl)-3-methylbutanamide]
16 | 5.6 | 16.5 | – | – | CCC(C)C(=O)NCCOc1ccc2ncc(-c3cc4ccccc4o3)n2n1 (stereo not shown) [Example I-73, N-(2-{[3-(1-Benzofuran-2-yl)imidazo[1,2-b]-pyridazin-6-yl]oxy}ethyl)-2-methylbutanamide]

Row | IC50 (MKNK1 [1]; Table 1a) [nM] | IC50 (MKNK1 [2]; Table 2a) [nM] | IC50 (MKNK1 [1]; Table 1b) [nM] | IC50 (MKNK1 [2]; Table 2b) [nM] | Compound
17 | 5.4 | 16.7 | – | – | CCCCC(=O)NCCOc1ccc2ncc(-c3cc4ccccc4o3)n2n1 [Example I-74, N-(2-{[3-(1-Benzofuran-2-yl)imidazo[1,2-b]-pyridazin-6-yl]oxy}ethyl)pentanamide]
18 | 6 | 17.7 | – | – | O=C(Cc1ccccc1)NCCOc1ccc2ncc(-c3cc4ccccc4o3)n2n1 [Example I-75, N-(2-{[3-(1-Benzofuran-2-yl)imidazo[1,2-b]-pyridazin-6-yl]oxy}ethyl)-2-phenylacetamide]
19 | 7.3 | 21.1 | – | – | O=C(CC1CC1)NCCOc1ccc2ncc(-c3cc4ccccc4o3)n2n1 [Example I-76, N-(2-{[3-(1-Benzofuran-2-yl)imidazo[1,2-b]-pyridazin-6-yl]oxy}ethyl)-2-cyclopropylacetamide]
20 | 7.9 | 22.2 | – | – | O=C(NCCOc1ccc2ncc(-c3cc4ccccc4o3)n2n1)c1ccco1 [Example I-77, N-(2-{[3-(1-Benzofuran-2-yl)imidazo[1,2-b]-pyridazin-6-yl]oxy}ethyl)furan-2-carboxamide]
21 | 6.7 | 23 | – | – | O=C(NCCOc1ccc2ncc(-c3cc4ccccc4o3)n2n1)C1CCCO1 (stereo not shown) [Example I-78, N-(2-{[3-(1-Benzofuran-2-yl)imidazo[1,2-b]-pyridazin-6-yl]oxy}ethyl)tetrahydrofuran-2-carboxamide]
22 | 10.1 | 25.5 | – | – | Cn1ccc(C(=O)NCCOc2ccc3ncc(-c4cc5ccccc5o4)n3n2)n1 [Example I-79, N-(2-{[3-(1-Benzofuran-2-yl)imidazo[1,2-b]-pyridazin-6-yl]oxy}ethyl)-1-methyl-1H-pyrazole-3-carboxamide]
23 | 24.5 | 47.7 | – | – | CC(=O)NC[C@@H](C)Oc1ccc2ncc(-c3cc4ccccc4o3)n2n1 [Example I-80, N-[(2R)-2-{[3-(1-Benzofuran-2-yl)imidazo[1,2-b]pyridazin-6-yl]oxy}-propyl]acetamide]
24 | – | – | 8.5 | 20 | c1cc(N2CCOCC2)c2cc(-c3cnc4ccc(OC[C@H]5CNCCO5)nn34)oc2c1 [II-1, 3-[4-(Morpholin-4-yl)-1-benzofuran-2-yl]-6-[(2R)-morpholin-2-ylmethoxy]-imidazo[1,2-b]pyridazine]
25 | – | – | 16 | 36 | C[C@H](N)COc1ccc2ncc(-c3cc4c(N5CCOCC5)cccc4o3)n2n1 [II-2, (2S)-1-({3-[4-(Morpholin-4-yl)-1-benzofuran-2-yl]imidazo[1,2-b]pyridazin-6-yl}oxy)propan-2-amine]
26 | – | – | 110 | 196 | CC(C)(C)OC(=O)N[C@H]1C[C@H](Oc2ccc3ncc(-c4cc5c(N6CCOCC6)cccc5o4)n3n2)C1 [II-3, tert-Butyl [trans-3-({3-[4-(morpholin-4-yl)-1-benzofuran-2-yl]imidazo[1,2-b]-pyridazin-6-yl}oxy)cyclobutyl]carbamate]
27 | – | – | 18 | 28 | N[C@H]1C[C@H](Oc2ccc3ncc(-c4cc5c(N6CCOCC6)cccc5o4)n3n2)C1 [II-4, trans-3-({3-[4-(Morpholin-4-yl)-1-benzofuran-2-yl]imidazo[1,2-b]pyridazin-6-yl}oxy)cyclobutanamine]
28 | – | – | 15 | 27 | O=C1CC[C@H](COc2ccc3ncc(-c4cc5c(N6CCOCC6)cccc5o4)n3n2)N1 [II-5, (5R)-5-[({3-[4-(Morpholin-4-yl)-1-benzofuran-2-yl]imidazo[1,2-b]pyridazin-6-yl}oxy)methyl]pyrrolidin-2-one]
29 | – | – | 7.1 | 14 | COC[C@H]1CCCN1c1cccc2oc(-c3cnc4ccc(OCCCS(C)(=O)=O)nn34)cc12 [II-6, 3-{4-[(2R)-2-(Methoxymethyl)pyrrolidin-1-yl]-1-benzofuran-2-yl}-6-[3-(methyl-sulfonyl)propoxy]imidazo[1,2-b]pyridazine]
30 | – | – | 6.3 | 4.2 | COC[C@H]1CCCN1c1cccc2oc(-c3cnc4ccc(OC[C@H]5CNCCO5)nn34)cc12 [II-7, 3-{4-[(2R)-2-(Methoxymethyl)pyrrolidin-1-yl]-1-benzofuran-2-yl}-6-[(2R)-morpholin-2-ylmethoxy]imidazo[1,2-b]pyridazine]
31 | – | – | 2 | 2.7 | COC[C@H]1CCCN1c1cccc2oc(-c3cnc4ccc(OC[C@H](C)N)nn34)cc12 [II-8, (2S)-1-[(3-{4-[(2R)-2-(Methoxymethyl)pyrrolidin-1-yl]-1-benzofuran-2-yl}-imidazo[1,2-b]pyridazin-6-yl)oxy]propan-2-amine]
32 | – | – | 0.8 | 0.6 | COC[C@H]1CCCN1c1cccc2oc(-c3cnc4ccc(OC[C@H]5CCC(=O)N5)nn34)cc12 [II-9, (5R)-5-{[(3-{4-[(2R)-2-(Methoxymethyl)pyrrolidin-1-yl]-1-benzofuran-2-yl}imidazo[1,2-b]pyridazin-6-yl)oxy]methyl}pyrrolidin-2-one]
